Experimental data from patent US9128108B2, “Mephedrone detection” (Randox Laboratories Limted, priority 2010, dated 2015).

Test system: raised antibody (polyclonal IgG raised against Immunogen 1, Hapten 1-BSA)
Assay: Competitive ELISA with Hapten 1-HRP conjugate confirming binding of raised antibody
Parameters: species or system sheep
Conditions: for binding of raised antibody (in words): competitive immunoassay at different antibody and conjugate concentrations; for Standard Absorb. / % Drop: standard 100 ng/ml; for Standard Absorb.: absorbance at 450 nm; for % Drop: drop of absorbance versus zero standard
Protocol: The process of developing an immunoassay is well known to the person skilled in the art. Briefly, for a competitive immunoassay in which the target analyte is a non-immunogenic molecule such as a hapten, the following process is conducted: antibodies are produced by immunising an animal, preferably a mammalian animal, by repeated administration of an immunogen. The serum from the immunised animal is collected when the antibody titre is sufficiently high. A conjugate is added to a sample containing the target analyte and the raised antibodies, and the conjugate and analyte compete for binding to the antibodies. The process may comprise fixing said serum antibodies to a backing substrate such as a polystyrene solid support or a biochip. The antibodies can be polyclonal or monoclonal, monoclonal antibodies being obtainable from polyclonal sera using standard techniques. The signal emitted in the immunoassay is proportionate to the amount of conjugate bound to the antibodies which in turn is inversely proportionate to the analyte concentration. The signal can be detected or quantified by comparison with a calibrator.
Hapten 1 was conjugated to bovine serum albumin (BSA). The resulting immunogen (Immunogen 1) was administered to adult sheep on a monthly basis to provide target-specific polyclonal antisera. IgG was extracted from the antisera via caprylic acid/ammonium sulphate precipitation of immunoglobulin. Microtitre plates (Thermo Scientific, 468667) were coated with antibody (125 μl) in coating buffer (10 mM Tris pH 8.5) at 37° C. for 2 hours. The plates were then washed 4 times over 10 minutes with working strength TBST. 50 μl of sample/standard (Methcathinone, Sigma M-5037; Cathinone, Sigma C-3196 and Mephedrone, Randox LK973) was added to the appropriate wells in triplicate, followed by 75 μl of Hapten 1-HRP conjugate and incubated at 25° C. for 1 hour. The plates were then washed and 125 μl of TMB (Randox, 4380-15) was added to each well and left at room temperature for 20 mins in the dark. The reaction was stopped using 125 μl of 0.2M sulphuric acid. The absorbances were read at 450 nm with an ELISA microplate reader (BIO-TEK Instruments, Elx800) and the means calculated.
Competitive immunoassay results at different antibody and conjugate concentrations show the raised antibody binds to mephedrone, methcathinone and cathinone (Table 1).

[1] = antibody 1.25 ug/ml, Hapten 1-HRP conjugate dilution 1/8K, zero absorb. 1.986
[2] = antibody 1.25 ug/ml, Hapten 1-HRP conjugate dilution 1/8K
[3] = antibody 5 ug/ml, Hapten 1-HRP conjugate dilution 1/4K, zero absorb. 1.961
[4] = antibody 5 ug/ml, Hapten 1-HRP conjugate dilution 1/4K

SMILES | binding of raised antibody (in words) | Standard Absorb. [1] | % Drop [2] | Standard Absorb. [3] | % Drop [4]
CNC(C)C(=O)c1ccc(C)cc1 (racemic) [Mephedrone, (RS)-2-methylamino-1-(4-methylphenyl)propan-1-one] | binds | 0.087 | 95.6% | 0.120 | 93.9%
C[C@H](N)C(=O)c1ccccc1 [Cathinone] | binds | 1.515 | 23.7% | 1.600 | 18.4%
CNC(C)C(=O)c1ccccc1 (stereo not drawn) [Methcathinone, 2-methylamino-1-phenylpropan-1-one] | binds | 0.169 | 91.5% | 0.205 | 89.5%
